“Also recorded” adds a separate entry of the source.
Columns and labels:
[1] = system: solid tumours and Non-Hodgkin's Lymphomas; test: Phase I, 1 h daily infusion x5 q3wk: antitumour activity; assay type: in vivo, human
Protocol: The objectives are to determine the Maximum Tolerated Dose, the Dose Limiting Toxicity (DLT), the pharmacokinetics (PK) and the recommended dose for phase 2 studies that can be given in a daily 1 hour IV infusion×5 days q 3 weeks. Patients with solid tumours and low and intermediate grade Non-Hodgkin's Lymphomas were eligible. The daily starting dose of aplidine was 80 μg/m^2. Cohorts of 3 patients (pts) are treated at each level with dose escalation according to toxicity, 20 patients were treated with 6 dose levels ranging from 80 μg-720 μg/m^2, 1 patient is presently at the dose of 960 μg/m^2. At total of 48 cycles were administered. Non-haematological toxicities were grade 1 and 2 with fatigue reported in most pts. Grade 1 hypersensitivity reactions were documented in 7 patients. Other toxicities included nausea, anorexia, diarrhoea, and anxiety. […] PK analysis was performed in treatment course 1. Aplidine concentrations were analysed by LC tandem mass spectrography. […] Potentially therapeutic plasma concentrations ([…]) were achieved. […] Accrual is ongoing at 960 μg/m^2.

[2] = system: PC-3 prostate tumour cells; test: in vitro activity on prostate tumour cells; assay type: cell-based, human
Protocol: Different model systems were evaluated to provide the basis for further clinical work. Selective antitumour activities were seen against two histologically different solid tumours: human gastric and prostate carcinomas. Potent in vitro activity to primary gastric tumour specimens or Hs746T gastric tumour cells is evident with IC30 values of 146 and 450 pM, respectively. […] activities were evaluated in nude rodents using sc implanted tumour fragments or hollow fibres (HF) containing tumour cells.

[3] = Phase I, 24 h infusion every 2 weeks: toxicity and pharmacokinetics; assay type: in vivo, human
Protocol: Aplidine is given as a 24 hour infusion every 2 weeks. The starting dose was 200 μg/m^2/d and dose escalation proceed including so far 400, 800, 1600, and 3200 μg/m^2/d. A total of 18 patients (M/F: 7/11, median age 52, OMS 0/1:10/8) have been entered. […] Among evaluable patients, toxicity consisted of mild grade I-II nausea/vomiting, grade I-II asthenia, and cramping occurring during or immediately after the infusion. No neuromuscular toxicity were reported at the evaluated doses. One patient with an advanced lung cancer and documented tumour progression at the dose of 1600 μg/m^2 developed a haemolytic anaemia and thrombocytopenia that was considered unlikely related to the study drug. […] An open 2-compartment model fits appropriately most plasma concentration profiles. […] The accrual is ongoing to determine the dose limiting toxicity and the dose to be recommended in phase II studies.
Aplidine was given to patients with solid tumour/NHL as a 24 hr infusion/q2w to 35 patients (median: age=51/ECOG=1) with solid tumour (32 pts) or NHL (3 pts). 23/35 patients were previously exposed to ≧3 previous lines of chemotherapy. Nine dose levels (200-7000 μg/m^2/w/q2w) and 65 cycles (120 infusions) were given. […] Toxicity consisted of G2-3 asthenia and emesis in 9-2 patients and 12-1 pts, respectively. G3 nausea/vomiting (≧5000 μg/m^2) was efficiently treated then prevented with 4HT3-regimens. […] At the dose of 5000 μg/m^2/w/q2w, 2 patients experienced transient muscle cramps with reversible G3 CPK-MM elevations. Among 9 patients treated at 6000 μg/m^2/w, 3 patients experienced an increase of CPK-MM and aldolase after the 3rd injection of aplidine. CPK elevations were G1-2 and not symptomatic in 2 patients but a G3 CPK elevation with G3 muscular pain and loss of muscle strength (DLT) was reported in 1 pt. This was reversible with no sequel. […] Ultrastructural electron microscopy indicated no morphological mitochondria alteration but a lost of the thick myosin filaments. At 7000 μg/m^2/q2w, 4 patients have been entered. […] Mechanistic hypothesis and preventive strategies against muscle toxicity are under evaluation.

[4] = system: MOLT-4 cells; test: activity of aplidine on MOLT-4 cells with VEGF added; assay type: cell-based, human; conditions: VEGF 10 ng/ml, 10% FCS, low concentrations of aplidine
[5] = system: prostate tumour; conditions: 1.25 mg/kg; cited from earlier work
[6] = 6000 μg/m^2/w, among 9 patients
[7] = 6000 mcg/m^2/2 wks, 12 patients

aplidine
duration of stable disease, colon cancer ([1]; 1 patient): 9 months
response, renal cell cancer ([1]; 1 patient): mixed response
objective responses ([1]; in vivo): No objective responses
reduction in the size of the tumor, heavily pre-treated CRC ([1]; one patient): 40%
reduction in sum of tumour measurements, renal cell cancer and liver mets ([1]; one patient, mixed responses): 10%
duration of stable disease, heavily pre-treated CRC ([1]; one patient, total 13 cycles): ≥ 6 months
IC50 [2]: 3.4 nM
transient muscle cramps with reversible G3 CPK-MM elevations ([3]; 5000 μg/m^2/w/q2w): 2 patients
G3 CPK elevation with G3 muscular pain and loss of muscle strength (DLT) [3, 6]: 1 pt
increase of CPK-MM and aldolase after the 3rd injection [3, 6]: 3 patients
initial phase median half-life ([3]; 2-compartment model, preliminary): 38.4 min
terminal phase median half-life ([3]; 2-compartment model, preliminary, 24 h infusion): 25.8 h
Nausea/vomiting G2 (worst toxicity per patient) ([3]; 200 mcg/m^2/2 wks, 3 patients): 2
Transaminitis G2 (worst toxicity per patient) ([3]; 200 mcg/m^2/2 wks, 3 patients): 1
Asthenia G2 (worst toxicity per patient) ([3]; 400 mcg/m^2/2 wks, 3 patients): 2
Hypertension G2 (worst toxicity per patient) ([3]; 400 mcg/m^2/2 wks, 3 patients): 1
Nausea/vomiting G2 (worst toxicity per patient) ([3]; 400 mcg/m^2/2 wks, 3 patients): 1
Flushing G1 (worst toxicity per patient) ([3]; 800 mcg/m^2/2 wks, 3 patients): 1
Muscle cramps G1 + G2 (worst toxicity per patient) ([3]; 800 mcg/m^2/2 wks, 3 patients): 2
Asthenia G2 (worst toxicity per patient) ([3]; 1600 mcg/m^2/2 wks, 6 patients): 2
Asthenia G3 (worst toxicity per patient) ([3]; 1600 mcg/m^2/2 wks, 6 patients): 1
Muscle cramps G1 + G2 (worst toxicity per patient) ([3]; 1600 mcg/m^2/2 wks, 6 patients): 1
Nausea/vomiting G2 (worst toxicity per patient) ([3]; 1600 mcg/m^2/2 wks, 6 patients): 4
Transaminitis G3 (worst toxicity per patient) ([3]; 1600 mcg/m^2/2 wks, 6 patients): (1)
Asthenia G2 (worst toxicity per patient) ([3]; 3200 mcg/m^2/2 wks, 3 patients): 1
Flushing G1 (worst toxicity per patient) ([3]; 3200 mcg/m^2/2 wks, 3 patients): 1
Muscle cramps G1 + G2 (worst toxicity per patient) ([3]; 3200 mcg/m^2/2 wks, 3 patients): 2
Muscle pain G2 (worst toxicity per patient) ([3]; 3200 mcg/m^2/2 wks, 3 patients): (1)
Nausea/vomiting G3 (worst toxicity per patient) ([3]; 3200 mcg/m^2/2 wks, 3 patients): (1)
Asthenia G2 (worst toxicity per patient) ([3]; 4000 mcg/m^2/2 wks, 3 patients): 1
Flushing G1 (worst toxicity per patient) ([3]; 4000 mcg/m^2/2 wks, 3 patients): 1
Muscle cramps G1 + G2 (worst toxicity per patient) ([3]; 4000 mcg/m^2/2 wks, 3 patients): 2
Muscle pain G1 (worst toxicity per patient) ([3]; 4000 mcg/m^2/2 wks, 3 patients): 2
Nausea/vomiting G2 (worst toxicity per patient) ([3]; 4000 mcg/m^2/2 wks, 3 patients): 2
Pain central catheter G2 (worst toxicity per patient) ([3]; 4000 mcg/m^2/2 wks, 3 patients): 2
Asthenia G3 (worst toxicity per patient) ([3]; 5000 mcg/m^2/2 wks, 3 patients): (1)
CPK elevation G3 (worst toxicity per patient) ([3]; 5000 mcg/m^2/2 wks, 3 patients): (1)[1]
CPK elevation G4 (worst toxicity per patient) ([3]; 5000 mcg/m^2/2 wks, 3 patients): (1)[1]
Muscle cramps G1 + G2 (worst toxicity per patient) ([3]; 5000 mcg/m^2/2 wks, 3 patients): 2
Muscle pain G1 (worst toxicity per patient) ([3]; 5000 mcg/m^2/2 wks, 3 patients): 1
Muscle weakness G1 (worst toxicity per patient) ([3]; 5000 mcg/m^2/2 wks, 3 patients): 1
Nausea/vomiting G2 (worst toxicity per patient) ([3]; 5000 mcg/m^2/2 wks, 3 patients): 1
Transaminitis G2 (worst toxicity per patient) ([3]; 5000 mcg/m^2/2 wks, 3 patients): 1
Asthenia G2 (worst toxicity per patient) [3, 7]: 6
CPK elevation G2 (worst toxicity per patient) [3, 7]: 1(1)
CPK elevation G3 (worst toxicity per patient) [3, 7]: 1(1)
Muscle cramps G1 + G2 (worst toxicity per patient) [3, 7]: 1
Muscle pain G1 (worst toxicity per patient) [3, 7]: 1
Muscle pain G2 (worst toxicity per patient) [3, 7]: 2
Muscle weakness G1 (worst toxicity per patient) [3, 7]: 1(1)
Muscle weakness G2 (worst toxicity per patient) [3, 7]: 1(1)
Nausea/vomiting G2 (worst toxicity per patient) [3, 7]: 2
Asthenia G2 (worst toxicity per patient) ([3]; 7000 mcg/m^2/2 wks, 7 patients): 2
CPK elevation G2 (worst toxicity per patient) ([3]; 7000 mcg/m^2/2 wks, 7 patients): 1
Flushing G1 (worst toxicity per patient) ([3]; 7000 mcg/m^2/2 wks, 7 patients): 1
Muscle pain G1 (worst toxicity per patient) ([3]; 7000 mcg/m^2/2 wks, 7 patients): 1
Nausea/vomiting G2 (worst toxicity per patient) ([3]; 7000 mcg/m^2/2 wks, 7 patients): 1
Neutrophenia G4 (worst toxicity per patient) ([3]; 7000 mcg/m^2/2 wks, 7 patients): 1
Transaminitis G2 (worst toxicity per patient) ([3]; 7000 mcg/m^2/2 wks, 7 patients): 1
terminal half-life ([3]; Example 6): 10 to 24 h
dose limiting toxicity ([3]; Example 6: 18 patients, 200-3200 μg/m^2/d): no dose limiting toxicity
clearance ([3]; Example 14): 332 ml/mm.m^2
terminal half life ([3]; Example 14): 15 to 35 h
G2 asthenia, patients ([3]; Example 14, 35 patients): 9 patients
G2 emesis, patients ([3]; Example 14, 35 patients): 12 pts
G3 asthenia, patients ([3]; Example 14, 35 patients): 2 patients
G3 emesis, patients ([3]; Example 14, 35 patients): 1 pts
cardiac toxicity ([3]; Example 14, 35 patients): No cardiac toxicity
haematologic toxicity ([3]; Example 14, 35 patients): No haematiologic toxicity
coefficient of variation of CL ([3]; Example 18, interpatient): 62%
t ½ ([3]; Example 18, median, quartiles 15.7-35.0): 23.8 h
plasma CL ([3]; Example 18, median, quartiles 192-415): 252 mL/min/m^2
Vss ([3]; Example 18, median, quartiles 274-638): 413 L/m^2
Plasma concentrations 24 h after the end of infusion, comparable to efficient in vitro concentrations ([3]; doses ≧3000 μg/m^2/q2w): < 1 ng/mL
effect of added VEGF on activity of aplidine [4]: slightly reduced the activity of low concentrations of aplidine; also recorded: partially abolish the activity of aplidine
T/C [5]: 25%

— patent US20090298752A1, “APLIDINE TREATMENT OF CANCERS” (PHARMA MAR, S.A., priority 1999, published 2009)
